Legend:
HDAC = HDAC inhibition; type: biochemical; conditions: for HDAC Inhibition 1 μM: compound at 1 μM; for HDAC Inhibition 10 μM: compound at 10 μM
NCIH460 = assay: Anti-cancer screen (MTT), NCIH460; type: cell-based; conditions: Homo sapiens, NCI-H460, 48 hours with compound, tested at 0.01-100 µM
In short: (§1)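 Cells (5000/well) in DMEM with 10% FBS were seeded 24 h, then exposed to compounds at 0.01, 0.1, 1, 10 and 100 µM in triplicate for 48 h at 37 °C. MTT was added for 3 h, formazan dissolved in DMSO and absorbance read at 570 nm; GI50, TGI and LC50 derived from % growth versus T0.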

HCT116 = assay: Anti-cancer screen (MTT), HCT116; type: cell-based; conditions: Homo sapiens, HCT-116, 48 hours with compound, tested at 0.01-100 µM
In short: as §1

MDAMB-231/U 251 = assay: Anti-cancer screen (MTT), MDAMB-231/U 251; type: cell-based; conditions: for CC50: 48 h, read-out: MDAMB-231/U 251 LC50; for GI50 / IC (TGI): 48 hours with compound, MTT, tested at 0.01-100 µM
In short: as §1

[1] = tested on: NCIH460, HCT116, MDAMB-231/U 251; assay: Anti-cancer screen, mean GI50 over the cell lines; type: cell-based; conditions: in µM
In short: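 HCT116, NCIH460 and U251 cells (5000/well) were seeded for 24 h, then exposed in triplicate to 0.01, 0.1, 1, 10 and 100 µM final compound for 48 h. Viability was read by MTT (3 h, absorbance 570 nm), and percent growth was calculated against untreated controls and a T0 plate read at compound addition.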

SMILES	melting point [°C]	HDAC Inhibition 1 μM (HDAC)	HDAC Inhibition 10 μM (HDAC)	GI50 (NCIH460) [µM]	IC (TGI) (NCIH460) [µM]	LC50 (NCIH460) [µM]	GI50 (HCT116) [µM]	IC (TGI) (HCT116) [µM]	LC50 (concentration giving 50% net cell kill relative to T0) (HCT116) [µM]	CC50 (MDAMB-231/U 251) [µM]	GI50 (MDAMB-231/U 251) [µM]	IC (TGI) (MDAMB-231/U 251) [µM]	Mean GI50 [1]
O=C(NCc1ccc(C(=O)N2CCN(c3ccccn3)CC2)cc1)OCc1cccs1 [Example 71, 2-Thienylmethyl{4-[(4-pyridin-2-ylpiperazin-1-yl)carbonyl]benzyl}carbamate]	129.3 to 130.3	9.14	7.67										
O=C(NCc1ccc(C(=O)N2CCN(c3ncccn3)CC2)cc1)OCc1cccs1 [Example 72, 2-Thienylmethyl{4-[(4-pyrimidin-2-ylpiperazin-1-yl)carbonyl]benzyl}carbamate]	143.6 to 144.6	8.08	8.40										
O=C(NCc1ccc(C(=O)N2CCC[C@H]2C(=O)NO)cc1)OCc1cccs1 [Example 99, 2-Thienylmethyl[4-({(2S)-2-[(hydroxyamino)carbonyl]pyrrolidin-1-yl}carbonyl)benzyl]carbamate]	90.6 to 91.5												
O=C(NCc1ccc(C(=O)N[C@@H](Cc2ccc(O)cc2)C(=O)NO)cc1)OCc1cccs1 [Example 100, 2-Thienylmethyl[4-({[2-(hydroxyamino)-1-(4-hydroxybenzyl)-2-oxoethyl]amino}carbonyl)benzyl]carbamate]	162.6 to 163.4	13.63	40.64										
O=C(CSC(F)F)Nc1cccc(NC(=O)c2ccc(CNC(=O)OCc3cccs3)cc2)c1 [Example 108, 2-Thienylmethyl[4-({[3-({[(difluoromethyl)thio]acetyl}amino)phenyl]amino}carbonyl)benzyl]carbamate]		−8.74	−0.86	9.5	> 100	> 100	100	> 100	> 100	> 100	5	15	>100
N/C(=N/O)c1ccc(NC(=O)OCc2cccs2)cc1 [Example 110, 2-thienylmethyl{4-[(E)-amino(hydroxyimino)-methyl]-phenyl}-carbamate]		17.50	52.34	> 100	> 100	> 100	80	> 100	> 100	> 100	10	> 100	>100

Source: patent publication US20100152188A1, “Novel Heterocyclic Compounds” (priority 2005, published 2010)
